Target: T1, Gag-Pol polyprotein [588-1027]/[588-1147] (Human immunodeficiency virus 1, UniProt P04585)
T1 construct: 588-1027; 588-1147
Assay: HIV-1 RT Assay
Details: pH 8.2

Row | SMILES | IC50 [µM]
1 | O=C1c2ccccc2C(=O)N1CCc1cccnc1O [2-[2-(2-oxo-1,2-dihydropyridin-3-yl)ethyl]-2,3-dihydro-1H-isoindole-1,3-dione] | > 300
2 | CCc1cc(C(O)CN2C(=O)c3ccccc3C2=O)c(OC)nc1C (stereo not drawn) [2-[2-(5-ethyl-2-methoxy-6-methylpyridin-3-yl)-2-hydroxyethyl]-2,3-dihydro-1H-isoindole-1,3-dione] | > 300
3 | CCc1cc(C(=O)CN2C(=O)c3ccccc3C2=O)c(OC)nc1C [2-[2-(5-ethyl-2-methoxy-6-methylpyridin-3-yl)-2-oxoethyl]-2,3-dihydro-1H-isoindole-1,3-dione] | > 300
4 | CCc1cc(CCN2C(=O)c3ccccc3C2=O)c(OC)nc1C [2-[2-(5-ethyl-2-methoxy-6-methylpyridin-3-yl)ethyl]-2,3-dihydro-1H-isoindole-1,3-dione] | 6.2
5 | CCc1cc(C(O)CN2C(=O)c3ccccc3C2=O)c(O)nc1C (stereo not drawn) [2-[2-(5-ethyl-6-methyl-2-oxo-1,2-dihydropyridin-3-yl)-2-hydroxyethyl]-2,3-dihydro-1H-isoindole-1,3-dione] | > 300
6 | CCc1cc(C(=O)CN2C(=O)c3ccccc3C2=O)c(=O)[nH]c1C [2-[2-(5-ethyl-6-methyl-2-oxo-1,2-dihydropyridin-3-yl)-2-oxoethyl]-2,3-dihydro-1H-isoindole-1,3-dione] | > 300
7 | CCc1cc(CCCN2C(=O)c3ccccc3C2=O)c(OC)nc1C [2-[3-(5-ethyl-2-methoxy-6-methylpyridin-3-yl)propyl]-2,3-dihydro-1H-isoindole-1,3-dione] | > 300
8 | CCc1cc(CN2C(=O)c3ccccc3C2=O)c(OC)nc1C [2-[(5-ethyl-2-methoxy-6-methylpyridin-3-yl)methyl]-2,3-dihydro-1H-isoindole-1,3-dione] | 16

Reference: BindingDB's records for doi:10.1021/jm00099a006 (Merck Research Laboratories, 1992)
